Test results taken from article PMC6934184, “Selective DNA-PKcs inhibition extends the therapeutic index of localized radiotherapy and chemotherapy” (The Journal of Clinical Investigation, 2019).

Target: T1, SGK2 (Homo sapiens, UniProt Q9HBY8)
T1 construct: purchased Thermo Fisher Scientific (Life Technologies) SelectScreen
Assay: SelectScreen Z'LYTE
Format: biochemical
Outline: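 NU5455 was profiled across the SelectScreen Broad panel of kinase activity and binding assays. Z'LYTE reactions such as CSF1R ran at apparent Km ATP, while the Adapta CAMK1 assay used ATP listed as 10. Values are given as percent.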

T1 sequence (Q9HBY8 whole entry): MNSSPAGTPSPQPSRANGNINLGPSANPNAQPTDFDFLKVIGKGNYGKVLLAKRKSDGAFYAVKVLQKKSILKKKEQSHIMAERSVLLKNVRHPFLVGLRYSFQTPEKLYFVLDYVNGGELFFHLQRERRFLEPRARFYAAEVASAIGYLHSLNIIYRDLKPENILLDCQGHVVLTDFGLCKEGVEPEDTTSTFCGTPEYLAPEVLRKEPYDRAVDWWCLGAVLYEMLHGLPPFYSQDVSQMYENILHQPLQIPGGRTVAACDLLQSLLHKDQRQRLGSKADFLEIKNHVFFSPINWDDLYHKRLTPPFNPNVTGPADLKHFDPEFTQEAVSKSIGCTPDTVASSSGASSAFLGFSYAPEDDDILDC

For `CN(C(=O)CN1CCOCC1)c1ccc2sc3c(-c4cccc5c(=O)cc(N6CC7CCC(C6)O7)oc45)cccc3c2c1` [NU5455], the inhibition at 1 µM was -2.7%.
